Source: patent US20090068290A1, “BIFEPRUNOX DOSES FOR TREATING SCHIZOPHRENIA” (priority 2006, published 2009)

What was measured:
[1] = system: patients with chronic schizophrenia; experiment: CDSS total score, Clinical Study Four; assay type: in vivo, human; conditions: FAS, ANCOVA; for CDSS total, Adjusted Mean Change from Baseline (LS mean): LOCF
Protocol: (§1) METHODOLOGY: This study was a multinational, multicenter, randomized, double-blind, parallel-group, placebo-controlled, fixed-dose study. The study consisted of a 3- to 6-day antipsychotic-free run-in period, after which patients were randomised to 6 months of double-blind treatment with fixed doses of bifeprunox (20 mg/day (BX20) or 30 mg/day (BX30)) or placebo (PBO). Patients allocated to the BX groups were up-titrated from 0.25 mg/day over 7 days (BX20) or 8 days (BX30), and then continued on these doses for the remainder of the study. […] At predetermined time points, blood samples were obtained for drug concentration analysis of BX and its major metabolites (3′- and 4′-sulfate conjugates of BX), and pharmaco-economic assessments were performed.

[2] = system: patients with chronic schizophrenia; experiment: CGI-I score and CGI-I responders (score 2 or less), Clinical Study Four; assay type: in vivo, human; conditions: FAS; for proportion of patients with a CGI-I score ≦2 / CGI-I, Adjusted mean values (LS mean): LOCF; for CGI-I, Adjusted mean values (LS mean): adjusted mean values instead of change from baseline
Protocol: as §1
CLINICAL STUDY FOUR: The proportion of patients with a CGI-I score ≦2 at each visit (CGI-I responders; FAS, LOCF) is show below in FIG. 5.

[3] = system: patients with chronic schizophrenia; experiment: Time to deterioration, Clinical Study Four (6-month, placebo-controlled); assay type: in vivo, human; conditions: for proportion of patients who deteriorated / time to deterioration of schizophrenia versus PBO (in words): 6 months; for proportion of patients who deteriorated / estimated hazard ratio relative to PBO, time to deterioration (Cox proportional hazards model) / Hazard Ratio (Cox), time to deterioration / % Deteriorated / No. of Pts Deteriorated: FAS; for time to deterioration of schizophrenia versus PBO (in words): BX 20 and 30 mg/day
Protocol: as §1
Investigational Product, Dose and Mode of Administration, Batch Number: Bifeprunox—up-titration over 7 (20 mg) or 8 days (30 mg) to 20 or 30 mg once daily; encapsulated tablets, orally.
Reference Thera Dose and Mode of Administration: Placebo—encapsulated tablets, orally.

[4] = Excretion of radioactivity after [14C]-labeled bifeprunox; conditions: single oral dose of [14C]-labeled bifeprunox
serum proteins = experiment: Binding to serum proteins
[5] = Clinical laboratory assessments (lipid shifts, thyroid function), Clinical Study Two; assay type: in vivo, human
Protocol: Pharmacokinetic (PK) data of bifeprunox in schizophrenic subjects were also assessed and are presented in a separate report (combined with data from study S1543003).
Subjects who completed this study had the option to continue in the long-term. […] Risperidone-treated subjects were titrated from 2 mg to 6 mg daily over a three-day period and were subsequently maintained at 6 mg/day for the remainder of the treatment period. […] Blood samples were also obtained at Screening/Baseline, Week 3, and Week 6 for clinical laboratory assessments.

CYP2C9, CYP3A4, CYP2D6 = experiment: Metabolism and drug interactions of bifeprunox
Text: (§2) The objective of this study is to assess the pharmacokinetics (PK) of bifeprunox. The PK of bifeprunox in healthy subjects were investigated based on a pooled analysis of PK parameters from 21 clinical pharmacology studies. The pooled analysis included PK profiles after single and multiple doses to 132 and 399 subjects, respectively, and explored the potential effects of age, gender, body weight, and race. In addition, PK in patients with schizophrenia were investigated using a population PK approach based on samples from 376 patients in phase II studies and 434 patients in phase III studies.

[6] = Pooled metabolic analysis, 6-week studies: glucose
Text: OBJECTIVE: To examine the metabolic effects of bifeprunox in patients with acute and stable schizophrenia.
METHODS: Metabolic data was compiled from one 6-month and four 6-week studies (i.e., a treatment period) of bifeprunox in patients with stable and acute schizophrenia, respectively. In the 6-month study, patients received bifeprunox (n=331) or placebo (PBO) (n=166). […] Metabolic evaluations included body weight, body mass index (BMI), plasma glucose and lipid profiles. Fasting glucose and lipid values were assessed in one 6-week study and in the 6-month study. Triglyceride:HDL ratio (TG:HDL) was calculated as a marker of insulin resistance. No statistical analyses were performed; only descriptive statistics are presented.

[7] = Pharmacokinetic interaction of lithium and bifeprunox in healthy male subjects; assay type: in vivo, human; conditions: bifeprunox up to 40 mg per day and lithium 450 mg twice daily
Protocol: Because bifeprunox may be used in combination with the mood-stabilizing drug lithium for the treatment of patients with psychoses and mood disorders, the effect of multiple doses of bifeprunox on the pharmacokinetic (PK) profile of lithium was evaluated. Lithium has a narrow therapeutic index that can complicate therapy, and serum levels greater than 1.5 mmol/L carry a greater risk of lithium toxicity than do lower levels.
METHODS: This was a single center, double-blind, randomized, placebo-controlled, parallel-design study in 48 healthy male subjects. All subjects were to receive open-label lithium (450 mg) twice daily on days 1 through 8 and, provided serum levels were stable on days 5 through 7, again on days 9 through 20. Subjects whose serum levels were stable on days 5 through 7 were included in those randomized to receive, in addition to lithium 450 mg twice daily, either placebo or a rising dose of bifeprunox (0.025-40 mg) once daily on days 9 through 17, and placebo or bifeprunox 40 mg on days 18 through 21. Only a single morning dose of lithium 450 mg was administered on day 21. Lithium, steady-state Cmax, AUC over the dosing interval (0-t), and renal clearance (CL-R) values were compared between the bifeprunox and placebo groups using ANCOVA with baseline values of lithium measured on day 8 as covariate.

[8] = Food effect on bifeprunox PK (standard high-fat meal)
Text: as §2

O=c1[nH]c2cccc(N3CCN(Cc4cccc(-c5ccccc5)c4)CC3)c2o1 [Bifeprunox, 7-[4-([1,1′-biphenyl]-3-ylmethyl)-1-piperazinyl]-2(3H)-benzoxazolone]
CDSS total, Adjusted Mean Change from Baseline (LS mean) ([1]; Month 6, listed as BX20): 0.0
CDSS total, Adjusted Mean Change from Baseline (LS mean) ([1]; Month 6, listed as BX30): 0.1
CDSS total, Adjusted Mean Change from Baseline (LS mean) ([1]; Week 6, listed as BX20): −0.2
CDSS total, Adjusted Mean Change from Baseline (LS mean) ([1]; Week 6, listed as BX30): −0.1
mean CDSS total scores versus PBO, per-visit LOCF analysis ([1]; either BX group): no statistically significant differences
proportion of patients with a CGI-I score ≦2 ([2]; BX20, Month 6): 22%
proportion of patients with a CGI-I score ≦2 ([2]; BX20, Week 6): 17%
proportion of patients with a CGI-I score ≦2 ([2]; BX30, Month 6): 20%
proportion of patients with a CGI-I score ≦2 ([2]; BX30, Week 6): 19%
CGI-I, Adjusted mean values (LS mean) ([2]; Month 6, ANCOVA): 4.0
CGI-I, Adjusted mean values (LS mean) ([2]; Week 6, ANCOVA, listed as BX20): 3.8
CGI-I, Adjusted mean values (LS mean) ([2]; Week 6, ANCOVA, listed as BX30): 3.7
mean CGI-I scores versus PBO, per-visit LOCF analysis ([2]; both BX doses, ANCOVA): statistically significantly superior to PBO from Week 6 onwards
proportion of patients who deteriorated ([3]; BX20 (20 mg/day)): 41%
estimated hazard ratio relative to PBO, time to deterioration (Cox proportional hazards model) ([3]; BX20 (20 mg/day)): 0.66
Hazard Ratio (Cox), time to deterioration ([3]; BX20 (bifeprunox 20 mg) relative to PBO): 0.656
% Deteriorated ([3]; BX20 (bifeprunox 20 mg)): 40.5%
No. of Pts Deteriorated ([3]; BX20 (bifeprunox 20 mg), N 158): 64
time to deterioration of schizophrenia versus PBO (in words) [3]: prevented deterioration of schizophrenia statistically significantly better than placebo
time to deterioration of schizophrenia versus PBO (in words) ([3]; listed as BX): statistically significantly longer time to deterioration
proportion of patients who deteriorated ([3]; BX30 (30 mg/day)): 38%
estimated hazard ratio relative to PBO, time to deterioration (Cox proportional hazards model) ([3]; BX30 (30 mg/day)): 0.65
Hazard Ratio (Cox), time to deterioration ([3]; BX30 (bifeprunox 30 mg) relative to PBO): 0.653
% Deteriorated ([3]; BX30 (bifeprunox 30 mg)): 38.4%
No. of Pts Deteriorated ([3]; BX30 (bifeprunox 30 mg), N 172): 66
radioactivity excreted in the feces [4]: 74%
radioactivity excreted in the urine [4]: 13%
bound to serum proteins (serum proteins): approximately 99%
incidence of N to H shifts in tri-iodine thyronine ([5]; Bifeprunox 30 mg): 6%
incidence of N to L shifts in TSH ([5]; Bifeprunox 30 mg): 4%
incidence of N to H shifts in tri-iodine thyronine ([5]; Bifeprunox 40 mg): 5%
incidence of N to L shifts in TSH ([5]; Bifeprunox 40 mg): 5%
shifts in lipids compared with the placebo and risperidone groups ([5]; bifeprunox 30, 40 mg, 6 weeks): lower incidence of N to H shifts in triglycerides, VLDL, and LDL
metabolizing enzymes (CYP2C9, CYP3A4, CYP2D6; human, in vivo): metabolized by CYP2C9, CYP3A4 and to a lesser extent, CYP2D6
interaction potential (CYP2C9, CYP3A4, CYP2D6; in vivo): low interaction potential
plasma levels in CYP2C9 slow/intermediate metabolizers (CYP2C9, CYP3A4, CYP2D6; vs subjects with normal enzyme activity): higher plasma levels
bifeprunox exposure on co-administration (CYP2C9, CYP3A4, CYP2D6; with carbamazepine (CYP3A4 inducer)): reduced
bifeprunox exposure on co-administration (CYP2C9, CYP3A4, CYP2D6; with fluconazole (CYP2C9 inhibitor)): increased
change in mean fasting glucose at endpoint [6]: -1.44 mg/dL
decrease in mean fasting glucose at endpoint [6]: 1.6%
tolerability of combined administration [7]: well tolerated
increase in AUC with a standard high-fat meal ([8]; 40 mg dose): 29%
increase in Cmax with a standard high-fat meal ([8]; 40 mg dose): 10%
Tmax ([8]; human, plasma, oral, 40 mg): 1.5 h
